In patent US4965280A, “Antifungal carbinols” (E. I. Du Pont de Nemours and Company, priority 1989, dated 1990):

Experiments:
Test in all cases: Test E
[1] = system: PARK WHEAT; type: in vivo, Triticum aestivum cv. Park
[2] = system: BONANZA BARLEY; type: in vivo, Hordeum vulgare cv. Bonanza
[3] = system: LAMBSQUARTER; type: in vivo, Chenopodium album
[4] = system: KOCHIA; type: in vivo, Kochia scoparia
[5] = system: REDROOT PIGWEED; type: in vivo, Amaranthus retroflexus
[6] = system: PERSN SPEEDWELL; type: in vivo, Veronica persica
[7] = system: MUSTARD SPP.; type: in vivo, Brassica spp.
[8] = system: ITALN. RYEGRASS; type: in vivo, Lolium multiflorum
[9] = system: GREEN FOXTAIL; type: in vivo, Setaria viridis
[10] = system: WILD OATS; type: in vivo, Avena fatua

C=C(c1ccc(F)cc1)C(O)(Cn1cncn1)c1ccc(F)cc1F (stereo not drawn) [Example 4, 2-(2,4-Difluorophenyl)-3-(4-fluorophenyl)-1-(1H-1,2,4-triazol-1-yl)-3-buten-2-ol]
plant response ([1]; POSTEMERGENCE 0064 GM/HA): 0%
plant response ([1]; POSTEMERGENCE 0125 GM/HA): 10%
plant response ([1]; POSTEMERGENCE 0250 GM/HA): 30%
plant response ([1]; POSTEMERGENCE 0500 GM/HA): 50%
plant response ([1]; PREEMERGENCE 0500 GM/HA): 80%
plant response ([2]; POSTEMERGENCE 0064 GM/HA): 20%
plant response ([2]; POSTEMERGENCE 0125 GM/HA): 30%
plant response ([2]; POSTEMERGENCE 0250 GM/HA): 40%
plant response ([2]; POSTEMERGENCE 0500 GM/HA): 60%
plant response ([2]; PREEMERGENCE 0500 GM/HA): 100%
plant response ([3]; POSTEMERGENCE 0064 GM/HA): 0%
plant response ([3]; POSTEMERGENCE 0125 GM/HA): 20%
plant response ([3]; POSTEMERGENCE 0250 GM/HA): 20%
plant response ([3]; POSTEMERGENCE 0500 GM/HA): 70%
plant response ([3]; PREEMERGENCE 0500 GM/HA): 100%
plant response ([4]; POSTEMERGENCE 0064 GM/HA): 0%
plant response ([4]; POSTEMERGENCE 0125 GM/HA): 30%
plant response ([4]; POSTEMERGENCE 0250 GM/HA): 70%
plant response ([4]; POSTEMERGENCE 0500 GM/HA): 90%
plant response ([4]; PREEMERGENCE 0500 GM/HA): 100%
plant response ([5]; POSTEMERGENCE 0064 GM/HA): 20%
plant response ([5]; POSTEMERGENCE 0125 GM/HA): 40%
plant response ([5]; POSTEMERGENCE 0250 GM/HA): 90%
plant response ([5]; POSTEMERGENCE 0500 GM/HA): 90%
plant response ([5]; PREEMERGENCE 0500 GM/HA): 100%
plant response ([6]; POSTEMERGENCE 0064 GM/HA): 20%
plant response ([6]; POSTEMERGENCE 0125 GM/HA): 70%
plant response ([6]; POSTEMERGENCE 0250 GM/HA): 100%
plant response ([6]; POSTEMERGENCE 0500 GM/HA): 100%
plant response ([6]; PREEMERGENCE 0500 GM/HA): 90%
plant response ([7]; POSTEMERGENCE 0064 GM/HA): 20%
plant response ([7]; POSTEMERGENCE 0125 GM/HA): 40%
plant response ([7]; POSTEMERGENCE 0250 GM/HA): 40%
plant response ([7]; POSTEMERGENCE 0500 GM/HA): 80%
plant response ([7]; PREEMERGENCE 0500 GM/HA): 50%
plant response ([8]; POSTEMERGENCE 0064 GM/HA): 0%
plant response ([8]; POSTEMERGENCE 0125 GM/HA): 0%
plant response ([8]; POSTEMERGENCE 0250 GM/HA): 30%
plant response ([8]; POSTEMERGENCE 0500 GM/HA): 80%
plant response ([8]; PREEMERGENCE 0500 GM/HA): 70%
plant response ([9]; POSTEMERGENCE 0064 GM/HA): 0%
plant response ([9]; POSTEMERGENCE 0125 GM/HA): 20%
plant response ([9]; POSTEMERGENCE 0250 GM/HA): 20%
plant response ([9]; POSTEMERGENCE 0500 GM/HA): 80%
plant response ([9]; PREEMERGENCE 0500 GM/HA): 100%
plant response ([10]; POSTEMERGENCE 0064 GM/HA): 0%
plant response ([10]; POSTEMERGENCE 0125 GM/HA): 0%
plant response ([10]; POSTEMERGENCE 0250 GM/HA): 0%
plant response ([10]; POSTEMERGENCE 0500 GM/HA): 30%
plant response ([10]; PREEMERGENCE 0500 GM/HA): 90%

C=C(c1ccccc1)C(O)(Cn1cncn1)c1ccc(Cl)cc1 (stereo not drawn) [Example 51, 2-(4-Chlorophenyl)-3-phenyl-1-(1H-1,2,4-triazol-1-yl)-3-buten-2-ol]
plant response ([1]; POSTEMERGENCE 0064 GM/HA): 0%
plant response ([1]; POSTEMERGENCE 0125 GM/HA): 0%
plant response ([1]; POSTEMERGENCE 0250 GM/HA): 0%
plant response ([1]; POSTEMERGENCE 0500 GM/HA): 0%
plant response ([1]; PREEMERGENCE 0500 GM/HA): 0%
plant response ([2]; POSTEMERGENCE 0064 GM/HA): 0%
plant response ([2]; POSTEMERGENCE 0125 GM/HA): 0%
plant response ([2]; POSTEMERGENCE 0250 GM/HA): 0%
plant response ([2]; POSTEMERGENCE 0500 GM/HA): 0%
plant response ([2]; PREEMERGENCE 0500 GM/HA): 30%
plant response ([3]; POSTEMERGENCE 0064 GM/HA): 0%
plant response ([3]; POSTEMERGENCE 0125 GM/HA): 0%
plant response ([3]; POSTEMERGENCE 0250 GM/HA): 20%
plant response ([3]; POSTEMERGENCE 0500 GM/HA): 40%
plant response ([3]; PREEMERGENCE 0500 GM/HA): 100%
plant response ([4]; POSTEMERGENCE 0064 GM/HA): 0%
plant response ([4]; POSTEMERGENCE 0125 GM/HA): 0%
plant response ([4]; POSTEMERGENCE 0250 GM/HA): 0%
plant response ([4]; POSTEMERGENCE 0500 GM/HA): 0%
plant response ([4]; PREEMERGENCE 0500 GM/HA): 70%
plant response ([5]; POSTEMERGENCE 0064 GM/HA): 30%
plant response ([5]; POSTEMERGENCE 0125 GM/HA): 50%
plant response ([5]; POSTEMERGENCE 0250 GM/HA): 60%
plant response ([5]; POSTEMERGENCE 0500 GM/HA): 90%
plant response ([5]; PREEMERGENCE 0500 GM/HA): 70%
plant response ([6]; POSTEMERGENCE 0064 GM/HA): 0%
plant response ([6]; POSTEMERGENCE 0125 GM/HA): 0%
plant response ([6]; POSTEMERGENCE 0250 GM/HA): 20%
plant response ([6]; POSTEMERGENCE 0500 GM/HA): 40%
plant response ([6]; PREEMERGENCE 0500 GM/HA): 20%
plant response ([7]; POSTEMERGENCE 0064 GM/HA): 0%
plant response ([7]; POSTEMERGENCE 0125 GM/HA): 30%
plant response ([7]; POSTEMERGENCE 0250 GM/HA): 30%
plant response ([7]; POSTEMERGENCE 0500 GM/HA): 30%
plant response ([7]; PREEMERGENCE 0500 GM/HA): 0%
plant response ([8]; POSTEMERGENCE 0064 GM/HA): 0%
plant response ([8]; POSTEMERGENCE 0125 GM/HA): 20%
plant response ([8]; POSTEMERGENCE 0250 GM/HA): 20%
plant response ([8]; POSTEMERGENCE 0500 GM/HA): 0%
plant response ([8]; PREEMERGENCE 0500 GM/HA): 0%
plant response ([9]; POSTEMERGENCE 0064 GM/HA): 0%
plant response ([9]; POSTEMERGENCE 0125 GM/HA): 0%
plant response ([9]; POSTEMERGENCE 0250 GM/HA): 0%
plant response ([9]; POSTEMERGENCE 0500 GM/HA): 0%
plant response ([9]; PREEMERGENCE 0500 GM/HA): 100%
plant response ([10]; POSTEMERGENCE 0064 GM/HA): 0%
plant response ([10]; POSTEMERGENCE 0125 GM/HA): 0%
plant response ([10]; POSTEMERGENCE 0250 GM/HA): 0%
plant response ([10]; POSTEMERGENCE 0500 GM/HA): 0%
plant response ([10]; PREEMERGENCE 0500 GM/HA): 20%

C=C(c1ccc(F)cc1)C(O)(Cn1cncn1)c1ccccc1F (stereo not drawn) [Example 644]
plant response ([1]; POSTEMERGENCE 0064 GM/HA): 0%
plant response ([1]; POSTEMERGENCE 0125 GM/HA): 20%
plant response ([1]; POSTEMERGENCE 0250 GM/HA): 30%
plant response ([1]; POSTEMERGENCE 0500 GM/HA): 40%
plant response ([1]; PREEMERGENCE 0500 GM/HA): 30%
plant response ([2]; POSTEMERGENCE 0064 GM/HA): 0%
plant response ([2]; POSTEMERGENCE 0125 GM/HA): 20%
plant response ([2]; POSTEMERGENCE 0250 GM/HA): 20%
plant response ([2]; POSTEMERGENCE 0500 GM/HA): 40%
plant response ([2]; PREEMERGENCE 0500 GM/HA): 50%
plant response ([3]; POSTEMERGENCE 0064 GM/HA): 0%
plant response ([3]; POSTEMERGENCE 0125 GM/HA): 0%
plant response ([3]; POSTEMERGENCE 0250 GM/HA): 20%
plant response ([3]; POSTEMERGENCE 0500 GM/HA): 40%
plant response ([3]; PREEMERGENCE 0500 GM/HA): 85%
plant response ([4]; POSTEMERGENCE 0064 GM/HA): 0%
plant response ([4]; POSTEMERGENCE 0125 GM/HA): 0%
plant response ([4]; POSTEMERGENCE 0250 GM/HA): 50%
plant response ([4]; POSTEMERGENCE 0500 GM/HA): 70%
plant response ([4]; PREEMERGENCE 0500 GM/HA): 100%
plant response ([5]; POSTEMERGENCE 0064 GM/HA): 50%
plant response ([5]; POSTEMERGENCE 0125 GM/HA): 50%
plant response ([5]; POSTEMERGENCE 0250 GM/HA): 50%
plant response ([5]; POSTEMERGENCE 0500 GM/HA): 60%
plant response ([5]; PREEMERGENCE 0500 GM/HA): 80%
plant response ([6]; POSTEMERGENCE 0064 GM/HA): 0%
plant response ([6]; POSTEMERGENCE 0125 GM/HA): 20%
plant response ([6]; POSTEMERGENCE 0250 GM/HA): 40%
plant response ([6]; POSTEMERGENCE 0500 GM/HA): 80%
plant response ([6]; PREEMERGENCE 0500 GM/HA): 50%
plant response ([7]; POSTEMERGENCE 0064 GM/HA): 20%
plant response ([7]; POSTEMERGENCE 0125 GM/HA): 20%
plant response ([7]; POSTEMERGENCE 0250 GM/HA): 50%
plant response ([7]; POSTEMERGENCE 0500 GM/HA): 50%
plant response ([7]; PREEMERGENCE 0500 GM/HA): 0%
plant response ([8]; POSTEMERGENCE 0064 GM/HA): 0%
plant response ([8]; POSTEMERGENCE 0125 GM/HA): 20%
plant response ([8]; POSTEMERGENCE 0250 GM/HA): 50%
plant response ([8]; POSTEMERGENCE 0500 GM/HA): 40%
plant response ([8]; PREEMERGENCE 0500 GM/HA): 0%
plant response ([9]; POSTEMERGENCE 0064 GM/HA): 30%
plant response ([9]; POSTEMERGENCE 0125 GM/HA): 30%
plant response ([9]; POSTEMERGENCE 0250 GM/HA): 50%
plant response ([9]; POSTEMERGENCE 0500 GM/HA): 50%
plant response ([9]; PREEMERGENCE 0500 GM/HA): 100%
plant response ([10]; POSTEMERGENCE 0064 GM/HA): 0%
plant response ([10]; POSTEMERGENCE 0125 GM/HA): 0%
plant response ([10]; POSTEMERGENCE 0250 GM/HA): 20%
plant response ([10]; POSTEMERGENCE 0500 GM/HA): 20%
plant response ([10]; PREEMERGENCE 0500 GM/HA): 20%
